# Results taken from publication PMC8394356 (Biomedicines, 2021).
# Structures can show the parent of a compound that is named as a salt. Where two headings read alike, the source gives them in different places.
# What was measured:
# Aβ (1-42) peptide = target: T1, Aβ (1-42) peptide (Homo sapiens, UniProt P05067); assay: Inhibition of Aβ (1-42) aggregation in vitro (ThT fluorescent assay); format: biochemical; conditions: for inhibition at 10 µM: read-out: inhibition of Aβ aggregation
# T1 construct: the synthetic Aβ (1-42) peptide was weighed in an Eppendorf tube; purchased Kelowna International Scientific Inc; host or cells: synthetic peptide
# T1 sequence (P05067 672-713): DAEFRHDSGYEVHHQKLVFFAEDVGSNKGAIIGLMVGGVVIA
# Protocol: The ThT fluorescent assay was used to monitor the isolated compounds from the TT-hull on inhibition of Aβ (1-42) peptide aggregations. For the preparation of the Aβ stock film, the synthetic Aβ (1-42) peptide was weighed in an Eppendorf tube and dissolved in HFIP to prepare a 1 mM stock solution; then, HFIP solvent was evaporated to form the Aβ (1-42) film. The stock film was dissolved in 100 μL of 60 mM NaOH, and further diluted with 50 mM phosphate buffer (pH7.4, containing 150 mM sodium chloride, 1 mM EDTA, and 0.02% sodium azide). The 125 μL working solution contained 10 μM Aβ (1-42) peptide, purified compounds (10, 20, and 40 μM in DMSO), and 10 μM ThT solution, which was gently shaken at 37 °C for 24 h. The mixture without the sample additions was the control. The fluorescence ratios of Ex440nm/Em486nm were recorded at a time of 0 h and 24 h, and changes in fluorescence over a 24 h period were expressed as ΔE. The inhibition of Aβ aggregation (%) was calculated as [(ΔEcontrol−ΔEsample)/(ΔEcontrol)] × 100%.
# [1] = test system: scopolamine-induced amnesiac ICR mice; assay: Passive avoidance test in scopolamine-induced amnesiac ICR mice; format: in vivo; conditions: scopolamine 1 mg/kg i.p.
# Protocol: The oral administration of TT-hull extracts or purified compounds in scopolamine-induced amnesiac ICR mice was performed according to the previous report, with some modifications. The 8-week-old male ICR mice were purchased from the Laboratory Animal Center, College of Medicine, National Taiwan University (Taipei, Taiwan). Normal diets (Prolab® RMH2500, Jefferson City, MO, USA) and water were provided during the animal experiments. All animal experimental protocols were approved by the Institutional Animal Care and Use Committee of Taipei Medical University (LAC-2016-0275). After one week of acclimation, for treatments of TT-hull extracts to test prevention, the mice were randomly divided into seven groups (6 heads/group), including the blank, the control, the donepezil-positive control, and the four extract-administered groups. […] Except for the blank group, the mice in each group were intraperitoneally injected with scopolamine (1 mg/kg) 30 min after the oral sample administration, and the mice in the blank group were injected with an equal volume of PBS. After being injected with scopolamine or PBS for another 30 min, each mouse was evaluated by a passive avoidance test at day 13 to day 14 and by the Morris water maze from day 17 to day 19. At the end of the experiments at day 20, the mice were sacrificed. For oral administration of purified compounds to test prevention, the ICR mice were pre-administered orally with TT-1 (100 mg/kg, 200 mg/kg) or TT-2 (300 mg/kg) once a day by gavage from day 1 to day 5; […]. From day 6 to day 11, the procedure was the same for the oral administration of the TT-hull extracts. Each mouse was evaluated by a passive avoidance test at day 6 to day 7 and by the Morris water maze from day 8 to day 10. […]
# The passive avoidance test and Morris water maze were used to evaluate the learning and memory functions of scopolamine-treated mice after the treatments with TT-hull extracts or purified compounds, by following the previous report. […] The time for which each mouse stayed in the light box (step-through latency of the acquisition trial, sec) was recorded. […] On the second day of the passive avoidance test (as the retention trial), the same protocol was performed, except that there were no electric foot shocks in the dark box, and the time for which each mouse stayed in the light box (step-through latency of the retention trial) was recorded. […] For the second training procedure of the third day (as the reference memory task), the time required for the mouse to find and climb onto the platform from the starting point was recorded as the latency (sec). The platform was then removed (as the probe test), and the swimming time and crossing time in the platform quadrant were recorded for each mouse.
# recombinant human AChE = target: T2, recombinant human AChE (Homo sapiens, UniProt P22303); assay: biochemical; conditions: for IC50: isolated compounds from TT-hull-50EE, recombinant human AChE
# T2 construct: purchased R&D Systems Inc. 7574-CE
# T2 sequence (P22303 32-614): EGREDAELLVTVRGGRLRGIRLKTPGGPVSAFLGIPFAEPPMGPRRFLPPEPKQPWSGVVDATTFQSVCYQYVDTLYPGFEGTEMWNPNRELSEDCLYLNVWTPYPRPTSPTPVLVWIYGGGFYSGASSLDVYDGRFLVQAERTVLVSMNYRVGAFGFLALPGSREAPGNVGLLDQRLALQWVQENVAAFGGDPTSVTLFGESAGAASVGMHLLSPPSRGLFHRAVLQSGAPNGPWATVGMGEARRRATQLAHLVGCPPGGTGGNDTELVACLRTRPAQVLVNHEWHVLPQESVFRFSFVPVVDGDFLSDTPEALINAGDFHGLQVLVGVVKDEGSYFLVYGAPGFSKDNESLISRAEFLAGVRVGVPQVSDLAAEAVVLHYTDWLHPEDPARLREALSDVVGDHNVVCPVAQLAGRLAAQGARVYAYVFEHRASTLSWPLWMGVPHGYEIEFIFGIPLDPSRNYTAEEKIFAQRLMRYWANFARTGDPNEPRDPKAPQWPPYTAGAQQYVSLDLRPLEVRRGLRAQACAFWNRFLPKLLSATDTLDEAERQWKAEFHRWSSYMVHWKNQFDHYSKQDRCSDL
# Protocol: The acetylthiocholine iodide and DTNB were used for in vitro AChE inhibitory activity assays following the previous report. […] An equal volume of DMSO instead of the sample solution was used as a blank and expressed as 100% AChE activity. The absorbance changes were recorded at 405 nm for 10 min. The AChE inhibition (%) was calculated as follows: [(A405blank−A405sample)/(A405blank)] × 100%.
# [2] = Oxygen radical absorbance capacity (ORAC), OxiSelect Assay Kit; conditions: for ORAC activities, fold higher than those of Trolox / ORAC activities relative to those of Trolox: compound at 10 μM; for ORAC values: compound at a concentration of 10 μM; for ORAC activities relative to those of Trolox: % of Trolox
# Protocol: The antioxidant index of free radical scavenging activities of the extracts (1.5 or 2.5 μg/mL) and purified compounds (10 μM) of TT-hull were determined by a commercial OxiSelect™ Assay Kit for oxygen radical absorbance capacity (ORAC) determination. The standard curve of ORAC was plotted using different concentrations of water-soluble vitamin E analog (the compound’s name was Trolox, 6-hydroxy-2,5,7,8-tetramethylchroman-2-carboxylic acid) at 2.5, 5, 10, 20, 40, and 60 μM. Therefore, the ORAC activities of TT-hull extracts or purified compounds were calculated equivalently to the Trolox effects and expressed as Trolox equivalents (μM).
# [3] = test system: scopolamine-induced amnesiac ICR mice; assay: Morris water maze in scopolamine-induced amnesiac ICR mice; format: in vivo; conditions: donepezil 5 mg/kg, scopolamine 1 mg/kg i.p.
# Protocol: The oral administration of TT-hull extracts or purified compounds in scopolamine-induced amnesiac ICR mice was performed according to the previous report, with some modifications. The 8-week-old male ICR mice were purchased from the Laboratory Animal Center, College of Medicine, National Taiwan University (Taipei, Taiwan). Normal diets (Prolab® RMH2500, Jefferson City, MO, USA) and water were provided during the animal experiments. All animal experimental protocols were approved by the Institutional Animal Care and Use Committee of Taipei Medical University (LAC-2016-0275). After one week of acclimation, for treatments of TT-hull extracts to test prevention, the mice were randomly divided into seven groups (6 heads/group), including the blank, the control, the donepezil-positive control, and the four extract-administered groups. […] Except for the blank group, the mice in each group were intraperitoneally injected with scopolamine (1 mg/kg) 30 min after the oral sample administration, and the mice in the blank group were injected with an equal volume of PBS. After being injected with scopolamine or PBS for another 30 min, each mouse was evaluated by a passive avoidance test at day 13 to day 14 and by the Morris water maze from day 17 to day 19. At the end of the experiments at day 20, the mice were sacrificed. For oral administration of purified compounds to test prevention, the ICR mice were pre-administered orally with TT-1 (100 mg/kg, 200 mg/kg) or TT-2 (300 mg/kg) once a day by gavage from day 1 to day 5; […]. From day 6 to day 11, the procedure was the same for the oral administration of the TT-hull extracts. Each mouse was evaluated by a passive avoidance test at day 6 to day 7 and by the Morris water maze from day 8 to day 10. At the end of the experiments at day 11, the mice were sacrificed, and the brain tissue was isolated and stored at −80 °C for further measurements.
# The passive avoidance test and Morris water maze were used to evaluate the learning and memory functions of scopolamine-treated mice after the treatments with TT-hull extracts or purified compounds, by following the previous report. The apparatus of the passive avoidance test included a light box and a dark box separated by a guillotine door in a shuttle chamber (AccuScan Instruments Inc, Columbus, OH, USA), and a wired metal floor was placed in the dark box to provide electric foot shocks during the acquisition trial. On the first day of the passive avoidance test (as the acquisition trial), each mouse was acclimatized to the shuttle chamber for 30 min, and then placed in the light box. The mouse entered the dark box, the guillotine door was immediately closed, and, at the same time, an electric shock (0.3 mA) was delivered for 3 sec to the mouse via the wired metal floor. The time for which each mouse stayed in the light box (step-through latency of the acquisition trial, sec) was recorded. […] On the second day of the passive avoidance test (as the retention trial), the same protocol was performed, except that there were no electric foot shocks in the dark box, and the time for which each mouse stayed in the light box (step-through latency of the retention trial) was recorded. For the Morris water maze evaluations, a three-successive-day training protocol was performed; each mouse was trained for 1 min to find and climb onto the platform twice a day at 30 min intervals. For the second training procedure of the third day (as the reference memory task), the time required for the mouse to find and climb onto the platform from the starting point was recorded as the latency (sec). The platform was then removed (as the probe test), and the swimming time and crossing time in the platform quadrant were recorded for each mouse.
# [4] = cited from earlier work
# [5] = test system: reduced form GSH contents in brain extracts; assay: Reduced GSH levels in brain tissue extracts of treated mice; format: in vivo; conditions: oral TT-1 200 mg/kg, donepezil 5 mg/kg; scopolamine-induced amnesiac mice
# Protocol: (§1) At the end of the TT-1 and TT-2 treatments, mice were sacrificed, and the whole brain of each ICR mouse was isolated and immediately stored at −80 °C for the measurement of residual AChE activity and the reduced GSH levels. The whole brain of each mouse was ground into powder by means of a mortar and pestle in liquid nitrogen and then extracted by adding 1 mL of 100 mM phosphate buffer (pH 7.5) to the ice bath. […] The residual AChE activity of each brain extract was expressed as [A405sample−A405sample blank]/μg protein.
# [6] = target: T3, AChE activity in brain extracts (Mus musculus, UniProt P21836); format: in vivo; conditions: oral TT-1 200 mg/kg, donepezil 5 mg/kg; scopolamine-induced amnesiac mice
# T3 construct: from tissue; host or cells: whole brain of ICR mice
# T3 sequence (P21836 32-614): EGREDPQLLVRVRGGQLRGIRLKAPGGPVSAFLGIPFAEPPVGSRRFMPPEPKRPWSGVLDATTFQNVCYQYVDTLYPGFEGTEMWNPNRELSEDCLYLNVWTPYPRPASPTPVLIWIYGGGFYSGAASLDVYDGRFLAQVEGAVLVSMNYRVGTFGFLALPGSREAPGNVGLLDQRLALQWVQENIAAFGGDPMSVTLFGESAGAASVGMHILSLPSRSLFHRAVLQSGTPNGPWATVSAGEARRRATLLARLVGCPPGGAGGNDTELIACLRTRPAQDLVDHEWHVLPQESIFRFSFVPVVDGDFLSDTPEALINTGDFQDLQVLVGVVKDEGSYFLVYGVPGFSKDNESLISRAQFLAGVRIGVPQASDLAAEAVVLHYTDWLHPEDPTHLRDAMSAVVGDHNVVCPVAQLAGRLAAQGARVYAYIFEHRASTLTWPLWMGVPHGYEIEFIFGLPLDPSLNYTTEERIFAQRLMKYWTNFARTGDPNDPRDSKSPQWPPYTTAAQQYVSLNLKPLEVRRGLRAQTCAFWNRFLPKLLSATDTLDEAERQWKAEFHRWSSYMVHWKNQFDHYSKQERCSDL
# Protocol: as §1
# [7] = test system: scopolamine-induced amnesiac mice; conditions: 10 mg/kg, with or without nanoparticle-delivered formulation; cited from earlier work
# [8] = 1:1 ratio of Aβ to compound, 10 μM:10 μM, 37 °C, 24 h
# [9] = 1:2 ratio of Aβ to compound, 10 μM to 20 μM, 37 °C, 24 h
# [10] = purified compound experiment, oral TT-1 100 and 200 mg/kg, TT-2 300 mg/kg, donepezil 5 mg/kg
# [11] = read-out: IC50 of AChE inhibitory activity
# [12] = extract experiment, oral 50EE or HWE 100 and 200 mg/kg
# [13] = purified compound experiment, oral TT-1 200 mg/kg
# [14] = 1:4 ratio of Aβ to compound, 10 μM to 40 μM, 37 °C, 24 h
# [15] = IC50 of AChE inhibitory activity
Compound,inhibition at 10 µM (Aβ (1-42) peptide; [8]),inhibition of Aβ aggregation (Aβ (1-42) peptide; [9]),"step-through latency in the retention trial vs control [1, 10]",IC50 (recombinant human AChE; [11]),"ORAC activities, fold higher than those of Trolox [2]",ORAC values [2],inhibition of Aβ aggregation (Aβ (1-42) peptide; [14]),also measured
"O=C(OC[C@H]1O[C@@H](OC(=O)c2cc(O)c(O)c(O)c2)[C@H](OC(=O)c2cc(O)c(O)c(O)c2)[C@@H](OC(=O)c2cc(O)c(O)c(O)c2)[C@@H]1O)c1cc(O)c(O)c(O)c1 [TT-2, 1,2,3,6-tetra-O-galloyl-β-D-glucopyranoside]",58.5%,88.08%,no significant differences (p > 0.05),84.2 µM,close to two-fold higher,18.7 μM Trolox equivalents,,
"COc1cc2c(cc1OC)C(=O)C(CC1CCN(Cc3ccccc3)CC1)C2 (centres unmarked) [donepezil, donepezil hydrochloride]",,,showed longer step-through latency,,,,,"step-through latency in the retention trial vs control ([1]; extract experiment, oral 50EE or HWE 100 and 200 mg/kg daily day 1-20, donepezil 5 mg/kg day 11-20): remained for a longer period of time in the light box; crossing numbers in the target quadrant, probe test, vs control [3, 12]: higher crossing numbers in the target quadrant; time spent in the target quadrant, probe test, vs control [3, 12]: spent more time in the target quadrant; crossing numbers in the target quadrant, probe test, vs control [3, 13]: higher crossing numbers in the target quadrant; time spent in the target quadrant, probe test, vs control [3, 13]: longer time spent in the target quadrant"
"O=C(OC1O[C@@H]2COC(=O)c3cc(O)c(O)c(O)c3-c3c(cc(O)c(O)c3O)C(=O)O[C@H]2[C@H](OC(=O)c2cc(O)c(O)c(O)c2)[C@H]1OC(=O)c1cc(O)c(O)c(O)c1)c1cc(O)c(O)c(O)c1 (some centres unmarked) [TT-1, Tellimagrandin II]",75.8%,100%,showed longer step-through latency,,,5.1 μM Trolox equivalents,100%,"IC50 (recombinant human AChE; [15]): 18.6 µM; remaining contents ([4]; acidic buffers (pH 2 or pH 4) and simulated gastric fluids (pH 1.2)): higher than 90%; residual content ([4]; simulated intestinal fluids (pH 7.5) at 37 °C for 9 h): 31.40%; crossing numbers in the target quadrant, probe test, vs control [3, 13]: higher crossing numbers in the target quadrant; time spent in the target quadrant, probe test, vs control [3, 13]: longer time spent in the target quadrant; ORAC activities relative to those of Trolox [2]: 50%; reduced form GSH contents in brain extracts vs control [5]: higher reduced form GSH contents; AChE activity in brain extracts vs control [6]: lower AChE activity"
"O=C(O)c1cc(O)c(O)c(O)c1 [TT-6, gallic acid]",37.2%,77.73%,,,2.4 fold,23.7 μM Trolox equivalents,88.19%,learning behavior functions in the probe test of the Morris water maze [7]: showed improved learning behavior functions; IC50 (recombinant human AChE; [15]): 246 µM
"O=C(O[C@@H]1O[C@H](CO)[C@@H](O)[C@H](OC(=O)c2cc(O)c(O)c(O)c2)[C@H]1OC(=O)c1cc(O)c(O)c(O)c1)c1cc(O)c(O)c(O)c1 [TT-3, 1,2,3-tri-O-galloyl-β-D-glucopyranoside]",42.7%,92.44%,,371 µM,close to two-fold higher,15.1 μM Trolox equivalents,,
"O=C(OC[C@H]1O[C@@H](OC(=O)c2cc(O)c(O)c(O)c2)[C@H](OC(=O)c2cc(O)c(O)c(O)c2)[C@@H](O)[C@@H]1O)c1cc(O)c(O)c(O)c1 [TT-4, 1,2,6-tri-O-galloyl-β-D-glucopyranoside]",54.6%,86.82%,,> 800 µM,close to two-fold higher,18.1 μM Trolox equivalents,100%,inhibition at 800 µM (recombinant human AChE; at concentration of 800 μM): < 50%
"O=C(O[C@H]1[C@@H]2OC(=O)c3cc(O)c(O)c(O)c3-c3c(cc(O)c(O)c3O)C(=O)OC[C@H]2OC(O)[C@@H]1OC(=O)c1cc(O)c(O)c(O)c1)c1cc(O)c(O)c(O)c1 (some centres unmarked) [TT-8, tellimagrandin I]",,97.13%,,18.4 µM,,7.5 μM Trolox equivalents,100%,inhibition at 10 µM (Aβ (1-42) peptide): 66.6%; ORAC activities relative to those of Trolox [2]: 75%
